Experiment [1] has as its target T1, Neuropeptide Y receptor type 2 (Homo sapiens, UniProt P49146).
T1 sequence (P49146 whole entry): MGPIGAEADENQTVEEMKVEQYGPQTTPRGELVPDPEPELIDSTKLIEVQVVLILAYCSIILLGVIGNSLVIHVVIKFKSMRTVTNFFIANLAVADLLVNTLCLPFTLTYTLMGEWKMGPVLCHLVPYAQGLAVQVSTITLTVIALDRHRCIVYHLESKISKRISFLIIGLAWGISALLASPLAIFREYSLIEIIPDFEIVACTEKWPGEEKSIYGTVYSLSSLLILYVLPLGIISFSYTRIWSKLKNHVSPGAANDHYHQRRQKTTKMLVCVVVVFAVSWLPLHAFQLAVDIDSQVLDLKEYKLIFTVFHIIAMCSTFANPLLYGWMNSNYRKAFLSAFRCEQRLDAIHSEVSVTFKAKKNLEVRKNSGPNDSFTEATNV

Another experiment addresses T2, B1 bradykinin receptor (Homo sapiens, UniProt P46663).
T2 sequence (P46663 whole entry): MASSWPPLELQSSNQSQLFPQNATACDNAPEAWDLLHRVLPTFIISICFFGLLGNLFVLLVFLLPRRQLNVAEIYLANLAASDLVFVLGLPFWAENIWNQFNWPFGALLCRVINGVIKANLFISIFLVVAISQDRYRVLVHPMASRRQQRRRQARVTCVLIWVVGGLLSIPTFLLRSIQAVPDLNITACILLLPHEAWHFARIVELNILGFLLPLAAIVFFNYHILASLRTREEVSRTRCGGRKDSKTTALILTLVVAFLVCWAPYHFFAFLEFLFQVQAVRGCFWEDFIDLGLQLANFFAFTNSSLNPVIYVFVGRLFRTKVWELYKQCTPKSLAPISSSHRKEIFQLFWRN

The next experiment has as its target Histamine H2 receptor (Homo sapiens, UniProt P25021).
The next experiment has as its target T3, D(4) dopamine receptor (Homo sapiens, UniProt P21917).
T3 sequence (P21917 whole entry): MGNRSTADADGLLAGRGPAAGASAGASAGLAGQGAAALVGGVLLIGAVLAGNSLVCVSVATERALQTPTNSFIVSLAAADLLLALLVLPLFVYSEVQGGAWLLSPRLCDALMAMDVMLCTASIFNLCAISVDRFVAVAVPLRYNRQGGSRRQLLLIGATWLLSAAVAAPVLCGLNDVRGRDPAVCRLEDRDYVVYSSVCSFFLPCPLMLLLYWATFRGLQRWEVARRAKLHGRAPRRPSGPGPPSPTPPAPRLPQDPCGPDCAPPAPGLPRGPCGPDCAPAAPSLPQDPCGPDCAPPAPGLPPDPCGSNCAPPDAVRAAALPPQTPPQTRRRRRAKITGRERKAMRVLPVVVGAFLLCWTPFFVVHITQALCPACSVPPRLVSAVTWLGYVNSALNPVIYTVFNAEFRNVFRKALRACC

Experiment [2] concerns the target T4, Muscarinic acetylcholine receptor M2 (Homo sapiens, UniProt P08172).
T4 sequence (P08172 whole entry): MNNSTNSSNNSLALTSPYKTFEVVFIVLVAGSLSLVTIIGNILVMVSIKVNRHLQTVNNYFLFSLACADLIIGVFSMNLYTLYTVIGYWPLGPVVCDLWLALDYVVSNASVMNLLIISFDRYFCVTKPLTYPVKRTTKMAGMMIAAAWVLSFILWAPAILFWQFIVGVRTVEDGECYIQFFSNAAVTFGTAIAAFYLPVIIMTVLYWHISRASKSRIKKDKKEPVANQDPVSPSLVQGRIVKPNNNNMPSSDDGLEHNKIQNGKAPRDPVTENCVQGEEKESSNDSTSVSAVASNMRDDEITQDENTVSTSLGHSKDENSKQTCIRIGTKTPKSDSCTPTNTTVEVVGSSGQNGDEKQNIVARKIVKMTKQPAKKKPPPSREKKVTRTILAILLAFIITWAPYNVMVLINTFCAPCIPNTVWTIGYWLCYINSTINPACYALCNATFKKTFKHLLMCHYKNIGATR

The next experiment concerns the target D(1A) dopamine receptor (Homo sapiens, UniProt P21728).
The next experiment has as its target T5, Androgen receptor (Rattus norvegicus, UniProt P15207).
T5 sequence (P15207 whole entry): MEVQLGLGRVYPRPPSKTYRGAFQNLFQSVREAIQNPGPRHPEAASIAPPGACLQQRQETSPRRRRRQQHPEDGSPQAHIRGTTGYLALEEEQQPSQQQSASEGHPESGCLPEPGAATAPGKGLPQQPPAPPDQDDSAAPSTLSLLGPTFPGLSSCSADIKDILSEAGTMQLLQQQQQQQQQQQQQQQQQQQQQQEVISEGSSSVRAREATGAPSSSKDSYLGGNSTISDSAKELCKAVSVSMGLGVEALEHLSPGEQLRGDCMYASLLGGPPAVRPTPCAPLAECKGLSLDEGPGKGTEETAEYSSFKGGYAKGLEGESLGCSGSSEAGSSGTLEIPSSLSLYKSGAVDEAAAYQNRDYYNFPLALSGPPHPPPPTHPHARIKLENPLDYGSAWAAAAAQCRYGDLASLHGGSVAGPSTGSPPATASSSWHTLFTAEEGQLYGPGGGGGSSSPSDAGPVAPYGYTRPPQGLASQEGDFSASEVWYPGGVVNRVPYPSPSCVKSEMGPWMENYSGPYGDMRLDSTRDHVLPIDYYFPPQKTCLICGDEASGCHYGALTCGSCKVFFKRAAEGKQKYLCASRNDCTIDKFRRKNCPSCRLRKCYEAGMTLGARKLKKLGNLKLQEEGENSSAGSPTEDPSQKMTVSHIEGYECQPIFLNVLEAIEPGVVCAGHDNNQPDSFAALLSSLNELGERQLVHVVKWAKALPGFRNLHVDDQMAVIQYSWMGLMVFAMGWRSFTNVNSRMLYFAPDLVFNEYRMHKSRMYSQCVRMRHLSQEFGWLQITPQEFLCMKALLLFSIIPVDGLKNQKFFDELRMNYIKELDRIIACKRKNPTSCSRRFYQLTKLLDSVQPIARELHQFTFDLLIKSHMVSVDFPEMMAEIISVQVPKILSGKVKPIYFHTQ
It counts as functional.

Usually AC50 stands for the concentration giving half of the maximal activity seen. High values mean activity only at high concentration, low ones activity at low concentration.
Note: assay procedure not described here.

Histamine H2 receptor, sequence (P25021 whole entry): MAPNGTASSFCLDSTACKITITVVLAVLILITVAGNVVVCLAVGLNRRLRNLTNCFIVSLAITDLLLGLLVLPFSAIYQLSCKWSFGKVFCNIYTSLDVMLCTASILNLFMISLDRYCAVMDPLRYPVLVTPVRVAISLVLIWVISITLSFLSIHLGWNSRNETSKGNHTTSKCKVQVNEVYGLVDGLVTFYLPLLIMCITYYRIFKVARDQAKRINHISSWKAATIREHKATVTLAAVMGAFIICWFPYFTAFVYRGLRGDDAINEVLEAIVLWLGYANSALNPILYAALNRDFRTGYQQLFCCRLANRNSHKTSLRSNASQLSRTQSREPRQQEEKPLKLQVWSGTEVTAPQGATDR
D(1A) dopamine receptor, sequence (P21728 whole entry): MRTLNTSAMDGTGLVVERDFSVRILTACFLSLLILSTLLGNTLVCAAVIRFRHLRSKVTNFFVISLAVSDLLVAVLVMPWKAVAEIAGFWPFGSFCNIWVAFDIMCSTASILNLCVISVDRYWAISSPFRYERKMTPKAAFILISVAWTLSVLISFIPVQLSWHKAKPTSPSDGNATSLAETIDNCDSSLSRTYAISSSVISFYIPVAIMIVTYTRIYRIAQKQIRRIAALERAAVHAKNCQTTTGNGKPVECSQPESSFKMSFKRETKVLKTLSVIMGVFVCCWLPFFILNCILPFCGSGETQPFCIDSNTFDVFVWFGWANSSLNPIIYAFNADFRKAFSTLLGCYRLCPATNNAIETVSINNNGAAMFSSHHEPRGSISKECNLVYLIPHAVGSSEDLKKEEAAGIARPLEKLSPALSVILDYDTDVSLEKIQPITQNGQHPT

As for `O=C(/C=C/c1cccc(S(=O)(=O)Nc2ccccc2)c1)NO` [BELINOSTAT], the AC50 (in experiment [1]; on B1 bradykinin receptor; on Histamine H2 receptor; at D(4) dopamine receptor; in experiment [2]; on D(1A) dopamine receptor) was over 10 µM each time.
In turn, `CC(C)c1cccc(C(C)C)c1O` [PROPOFOL] had an AC50 on Androgen receptor of over 30 µM.
Turning to `CCOC(=O)c1c(CSc2ccccc2)n(C)c2cc(Br)c(O)c(CN(C)C)c12` [UMIFENOVIR], the AC50 on Androgen receptor was over 30 µM.
The same measure, in the same setting: the figure for `CCCN1CC(NS(=O)(=O)N(CC)CC)CC2Cc3c(O)cccc3CC21` (stereo unspecified) [QUINAGOLIDE] is over 30 µM; for `CCC1(c2ccc(N)cc2)CCC(=O)NC1=O` (stereo unspecified) [AMINOGLUTETHIMIDE] it is over 30 µM.
`CC(=O)O[C@]1(C(C)=O)CC[C@H]2[C@@H]3C=C(Cl)C4=CC(=O)[C@@H]5C[C@@H]5[C@]4(C)[C@H]3CC[C@@]21C` [CYPROTERONE ACETATE]: the AC50 (on Histamine H2 receptor; in experiment [2]; at D(1A) dopamine receptor) was over 10 µM in each case.
For `CN(Cc1cnc2nc(N)nc(N)c2n1)c1ccc(C(=O)N[C@@H](CCC(=O)O)C(=O)O)cc1` [METHOTREXATE], the AC50 is over 30 µM in experiment [1]; over 30 µM at B1 bradykinin receptor; over 10 µM on Histamine H2 receptor; over 10 µM in experiment [2]; over 10 µM on D(1A) dopamine receptor.
`O=S1(=O)CCN(CN2CCS(=O)(=O)NC2)CN1` [TAUROLIDINE]: the AC50 at Androgen receptor is over 30 µM.
Regarding `C[C@@H]1C[C@H]2[C@@H]3C[C@H](F)C4=CC(=O)C=C[C@]4(C)[C@@]3(F)[C@@H](O)C[C@]2(C)[C@@]1(OC(=O)c1ccco1)C(=O)SCF` [FLUTICASONE FUROATE], the half-maximal activity concentration (AC50) (in experiment [1]; at B1 bradykinin receptor; on Histamine H2 receptor; at D(4) dopamine receptor; in experiment [2]; at D(1A) dopamine receptor) was over 10 µM each time.
`C[N+](C)(C)CCOP(=O)([O-])OC[C@H](O)CO`: on Androgen receptor, the AC50 is over 30 µM.
Regarding `CN(C)CCCN1c2ccccc2CCc2ccccc21` [IMIPRAMINE], the AC50 is over 30 µM in experiment [1]; over 30 µM on B1 bradykinin receptor; 0.0697 µM on Histamine H2 receptor; 5.56 µM on D(4) dopamine receptor; 0.454 µM in experiment [2]; 3.2 µM on D(1A) dopamine receptor.
As to `CN[C@@H](C)[C@@H](O)c1ccccc1` [PSEUDOEPHEDRINE], the AC50 is over 30 µM in experiment [1]; over 30 µM on B1 bradykinin receptor; over 10 µM at Histamine H2 receptor; over 10 µM at D(4) dopamine receptor; over 10 µM in experiment [2]; over 10 µM on D(1A) dopamine receptor.
Take `O=C(O)COCCN1CCN(C(c2ccccc2)c2ccc(Cl)cc2)CC1` (stereo unspecified) [CETIRIZINE]: the AC50 was over 30 µM in experiment [1], over 30 µM at B1 bradykinin receptor and over 10 µM on D(4) dopamine receptor.
On Androgen receptor, `O=C1OC(OC(=O)c2cccnc2Nc2cccc(C(F)(F)F)c2)c2ccccc21` (stereo unspecified) [TALNIFLUMATE] registered an AC50 of over 30 µM.
The molecule `CCOC(=O)C1=C(C)NC(C)=C(C(=O)OCC)C1c1ccccc1/C=C/C(=O)OC(C)(C)C` [LACIDIPINE] displayed an AC50 on Androgen receptor of over 30 µM.
Take `CN(C)C/C=C/C(=O)Nc1cc2c(Nc3ccc(F)c(Cl)c3)ncnc2cc1O[C@H]1CCOC1` [AFATINIB]: the AC50 on Androgen receptor is over 30 µM.
Turning to `CC(O)(CS(=O)(=O)c1ccc(F)cc1)C(=O)Nc1ccc(C#N)c(C(F)(F)F)c1` (stereo unspecified) [BICALUTAMIDE], the AC50 is over 30 µM in experiment [1]; over 30 µM at B1 bradykinin receptor; over 10 µM at Histamine H2 receptor; over 10 µM on D(4) dopamine receptor; over 10 µM in experiment [2]; over 10 µM on D(1A) dopamine receptor.
As for `CNCCc1ccc(OC(=O)C(C)C)c(OC(=O)C(C)C)c1` [IBOPAMINE], the AC50 on Androgen receptor is over 30 µM.

The values are drawn from ChEMBL document CHEMBL5291721, “A preclinical secondary pharmacology resource illuminates target-adverse drug reaction associations of marketed drugs” (Nat Commun, 2023).
